This is an account of results in ChEMBL document CHEMBL5370556, “Optimization, and biological evaluation of 3-O-β-chacotriosyl betulinic acid amide derivatives as novel small-molecule Omicron” (Eur J Med Chem, 2023).

SMILES strings stand for the structures. Active and inactive are the calls of the source. The rule behind the calls is not given here.

Holding throughout (assay type): functional, organism-based
In experiment [1] the test system is SARS-CoV-2. The experiment is described as follows: Antiviral activity against luciferase-expressing pseudovirus encoding SARS-CoV-2 Omicron expressing S protein L303A/E309A/R765A/K964A mutant infected in human 293T/ACE2 cells assessed as reduction of viral growth at 1.25 to 10 uM measured after 48 hrs by luciferase assay. Conditions: Severe acute respiratory syndrome coronavirus 2, dose 1.25-10 µM.

Experiment [2] deals with SARS-CoV-2. The experiment is described as follows: Antiviral activity against luciferase-expressing pseudovirus encoding SARS-CoV-2 Omicron expressing S protein R765A/K964A mutant infected in human 293T/ACE2 cells assessed as reduction of viral growth measured after 48 hrs by luciferase assay. The following applies: Severe acute respiratory syndrome coronavirus 2.
For experiment [3], the system named is SARS-CoV-2. The experiment is described as follows: Antiviral activity against luciferase-expressing pseudovirus encoding SARS-CoV-2 Omicron expressing S protein L303A/E309A mutant infected in human 293T/ACE2 cells assessed as reduction of viral growth measured after 48 hrs by luciferase assay. Conditions: Severe acute respiratory syndrome coronavirus 2.

As for `C=C(C)[C@@H]1CC[C@]2(C(=O)Nc3ccc4ccccc4c3)CC[C@]3(C)[C@H](CC[C@@H]4[C@@]5(C)CC[C@H](O[C@@H]6O[C@H](CO)[C@@H](O[C@@H]7O[C@@H](C)[C@H](O)[C@@H](O)[C@H]7O)[C@H](O)[C@H]6O[C@@H]6O[C@@H](C)[C@H](O)[C@@H](O)[C@H]6O)C(C)(C)[C@@H]5CC[C@]43C)[C@@H]12`, the result in experiment [1] was inactive. The result in experiment [2] and in experiment [3] was Active.
